Reference: patent publication US7384629B2, “Biological control of nematodes with Hirsutella minnesotensis” (Regents of the University of Minnesota, priority 2000, dated 2008)

These compounds were tested on Hirsutella rhossiliensis (assay: Effect of carbon source on growth, sporulation and spore germination). Conditions: carbon source 4 g/liter carbon; isolate ATCC46487; 5 weeks.
In the case of OC[C@H]1O[C@@H](O[C@H]2[C@H](O)[C@@H](O)[C@H](O)O[C@@H]2CO)[C@H](O)[C@@H](O)[C@@H]1O [D-(+)-cellubiose], the “Growth mm-in-diam, on agar” value is reported as 33.0 mm-in-diam. Inulin was tested, and the “Growth mm-in-diam, on agar” value was 36.7 mm-in-diam. In the case of O=C[C@H](O)[C@@H](O)[C@H](O)CO [D(+)xylose], the “Growth mm-in-diam, on agar” value is reported as 0.0 mm-in-diam. For O=C(O)CC(O)(CC(=O)O)C(=O)O [Citric acid], the “Growth mm-in-diam, on agar” value was 11.3 mm-in-diam. O=C[C@H](O)[C@H](O)[C@H](O)CO [D(−) ribose] was tested, and the “Growth mm-in-diam, on agar” value was 15.5 mm-in-diam. In the case of O=C(CO)[C@@H](O)[C@H](O)[C@H](O)CO [D(−)fructose], the “Growth mm-in-diam, on agar” value is reported as 16.2 mm-in-diam. For OC[C@H]1O[C@H](OCC2O[C@@H](O)[C@H](O)[C@@H](O)[C@@H]2O)[C@H](O)[C@@H](O)[C@H]1O (stereo partly shown) [Melibiose], the “Growth mm-in-diam, on agar” value was 35.0 mm-in-diam.

Same assay, conditions: carbon source 4 g/liter carbon; isolate JA16-1; 5 weeks
For OC[C@H]1O[C@@H](O[C@H]2[C@H](O)[C@@H](O)[C@H](O)O[C@@H]2CO)[C@H](O)[C@@H](O)[C@@H]1O [D-(+)-cellubiose], the “Growth mm-in-diam, on agar” value was 10.0 mm-in-diam. With Inulin the “Growth mm-in-diam, on agar” value was 20.0 mm-in-diam. With O=C[C@H](O)[C@@H](O)[C@H](O)CO [D(+)xylose] the “Growth mm-in-diam, on agar” value was 0.0 mm-in-diam. For O=C(O)CC(O)(CC(=O)O)C(=O)O [Citric acid], the “Growth mm-in-diam, on agar” value was 0.0 mm-in-diam. With O=C[C@H](O)[C@H](O)[C@H](O)CO [D(−) ribose] the “Growth mm-in-diam, on agar” value was 0.0 mm-in-diam. With O=C(CO)[C@@H](O)[C@H](O)[C@H](O)CO [D(−)fructose] the “Growth mm-in-diam, on agar” value was 0.0 mm-in-diam. In the case of OC[C@H]1O[C@H](OCC2O[C@@H](O)[C@H](O)[C@@H](O)[C@@H]2O)[C@H](O)[C@@H](O)[C@H]1O (stereo partly shown) [Melibiose], the “Growth mm-in-diam, on agar” value is reported as 11.8 mm-in-diam.

Same assay, conditions: carbon source 4 g/liter carbon; isolate OWVT-1; 5 weeks
For Inulin, the “Growth mm-in-diam, on agar” value was 25.2 mm-in-diam. With O=C[C@H](O)[C@@H](O)[C@H](O)CO [D(+)xylose] the “Growth mm-in-diam, on agar” value was 0.0 mm-in-diam. In the case of O=C(O)CC(O)(CC(=O)O)C(=O)O [Citric acid], the “Growth mm-in-diam, on agar” value is reported as 9.0 mm-in-diam. O=C[C@H](O)[C@H](O)[C@H](O)CO [D(−) ribose] was tested, and the “Growth mm-in-diam, on agar” value was 8.0 mm-in-diam. With O=C(CO)[C@@H](O)[C@H](O)[C@H](O)CO [D(−)fructose] the “Growth mm-in-diam, on agar” value was 8.5 mm-in-diam. OC[C@H]1O[C@H](OCC2O[C@@H](O)[C@H](O)[C@@H](O)[C@@H]2O)[C@H](O)[C@@H](O)[C@H]1O (stereo partly shown) [Melibiose] was tested, and the “Growth mm-in-diam, on agar” value was 18.2 mm-in-diam.

Same assay, conditions: carbon source; isolate ATCC46487; 5 weeks
For OC[C@H]1O[C@@H](O[C@H]2[C@H](O)[C@@H](O)[C@H](O)O[C@@H]2CO)[C@H](O)[C@@H](O)[C@@H]1O [D-(+)-cellubiose], the “Sporulation 10^3/cm^2, on agar” value was 13.8 10^3/cm^2 and the “growth in liquid culture (visual rating)” value was “I”. With Inulin the “Sporulation 10^3/cm^2, on agar” value was 3.5 10^3/cm^2. For O=C[C@H](O)[C@@H](O)[C@H](O)CO [D(+)xylose], the “Sporulation 10^3/cm^2, on agar” value was 0.0 10^3/cm^2. For O=C(O)CC(O)(CC(=O)O)C(=O)O [Citric acid], the “Sporulation 10^3/cm^2, on agar” value was 39.5 10^3/cm^2. For O=C[C@H](O)[C@H](O)[C@H](O)CO [D(−) ribose], the “Sporulation 10^3/cm^2, on agar” value was 61.3 10^3/cm^2. In the case of O=C(CO)[C@@H](O)[C@H](O)[C@H](O)CO [D(−)fructose], the “Sporulation 10^3/cm^2, on agar” value is reported as 50.2 10^3/cm^2 and the “growth in liquid culture (visual rating)” value is reported as “I”. With OC[C@H]1O[C@H](OCC2O[C@@H](O)[C@H](O)[C@@H](O)[C@@H]2O)[C@H](O)[C@@H](O)[C@H]1O (stereo partly shown) [Melibiose] the “Sporulation 10^3/cm^2, on agar” value was 41.9 10^3/cm^2 and the “growth in liquid culture (visual rating)” value was “III (III = hyphae growth or colonies form a pellet, less than 2.5 ml)”.

Same assay, conditions: carbon source; isolate ATCC46487; after incubation for 24 hr
In the case of OC[C@H]1O[C@@H](O[C@H]2[C@H](O)[C@@H](O)[C@H](O)O[C@@H]2CO)[C@H](O)[C@@H](O)[C@@H]1O [D-(+)-cellubiose], the “Spore germination %, on agar” value is reported as 58.9%. With Inulin the “Spore germination %, on agar” value was 54.4%. For O=C[C@H](O)[C@@H](O)[C@H](O)CO [D(+)xylose], the “Spore germination %, on agar” value was 21.1%. With O=C(O)CC(O)(CC(=O)O)C(=O)O [Citric acid] the “Spore germination %, on agar” value was 50.0%. With O=C[C@H](O)[C@H](O)[C@H](O)CO [D(−) ribose] the “Spore germination %, on agar” value was 48.9%. With O=C(CO)[C@@H](O)[C@H](O)[C@H](O)CO [D(−)fructose] the “Spore germination %, on agar” value was 45.6%. For OC[C@H]1O[C@H](OCC2O[C@@H](O)[C@H](O)[C@@H](O)[C@@H]2O)[C@H](O)[C@@H](O)[C@H]1O (stereo partly shown) [Melibiose], the “Spore germination %, on agar” value was 40.0%.

Same assay, conditions: carbon source; isolate JA16-1; 5 weeks
OC[C@H]1O[C@@H](O[C@H]2[C@H](O)[C@@H](O)[C@H](O)O[C@@H]2CO)[C@H](O)[C@@H](O)[C@@H]1O [D-(+)-cellubiose] was tested, and the “Sporulation 10^3/cm^2, on agar” value was 88.8 10^3/cm^2 and the “growth in liquid culture (visual rating)” value was “I”. Inulin was tested, and the “Sporulation 10^3/cm^2, on agar” value was 10.4 10^3/cm^2 and the “growth in liquid culture (visual rating)” value was “I”. In the case of O=C[C@H](O)[C@@H](O)[C@H](O)CO [D(+)xylose], the “Sporulation 10^3/cm^2, on agar” value is reported as 2.5 10^3/cm^2. With O=C(O)CC(O)(CC(=O)O)C(=O)O [Citric acid] the “Sporulation 10^3/cm^2, on agar” value was 7.4 10^3/cm^2. O=C[C@H](O)[C@H](O)[C@H](O)CO [D(−) ribose] was tested, and the “Sporulation 10^3/cm^2, on agar” value was 0.0 10^3/cm^2. O=C(CO)[C@@H](O)[C@H](O)[C@H](O)CO [D(−)fructose] was tested, and the “Sporulation 10^3/cm^2, on agar” value was 0.0 10^3/cm^2. In the case of OC[C@H]1O[C@H](OCC2O[C@@H](O)[C@H](O)[C@@H](O)[C@@H]2O)[C@H](O)[C@@H](O)[C@H]1O (stereo partly shown) [Melibiose], the “Sporulation 10^3/cm^2, on agar” value is reported as 13.1 10^3/cm^2 and the “growth in liquid culture (visual rating)” value is reported as “I”.

Same assay, conditions: carbon source; isolate JA16-1; after incubation for 24 hr
For OC[C@H]1O[C@@H](O[C@H]2[C@H](O)[C@@H](O)[C@H](O)O[C@@H]2CO)[C@H](O)[C@@H](O)[C@@H]1O [D-(+)-cellubiose], the “Spore germination %, on agar” value was 52.2%. In the case of Inulin, the “Spore germination %, on agar” value is reported as 72.2%. With O=C[C@H](O)[C@@H](O)[C@H](O)CO [D(+)xylose] the “Spore germination %, on agar” value was 24.4%. In the case of O=C(O)CC(O)(CC(=O)O)C(=O)O [Citric acid], the “Spore germination %, on agar” value is reported as 38.9%. In the case of O=C[C@H](O)[C@H](O)[C@H](O)CO [D(−) ribose], the “Spore germination %, on agar” value is reported as 15.5%. For O=C(CO)[C@@H](O)[C@H](O)[C@H](O)CO [D(−)fructose], the “Spore germination %, on agar” value was 34.4%. OC[C@H]1O[C@H](OCC2O[C@@H](O)[C@H](O)[C@@H](O)[C@@H]2O)[C@H](O)[C@@H](O)[C@H]1O (stereo partly shown) [Melibiose] was tested, and the “Spore germination %, on agar” value was 61.7%.

Same assay, conditions: carbon source; isolate OWVT-1; 5 weeks
With OC[C@H]1O[C@@H](O[C@H]2[C@H](O)[C@@H](O)[C@H](O)O[C@@H]2CO)[C@H](O)[C@@H](O)[C@@H]1O [D-(+)-cellubiose] the “Sporulation 10^3/cm^2, on agar” value was 23.9 10^3/cm^2 and the “growth in liquid culture (visual rating)” value was “I”. With Inulin the “Sporulation 10^3/cm^2, on agar” value was 4.2 10^3/cm^2. For O=C[C@H](O)[C@@H](O)[C@H](O)CO [D(+)xylose], the “Sporulation 10^3/cm^2, on agar” value was 0.0 10^3/cm^2. With O=C(O)CC(O)(CC(=O)O)C(=O)O [Citric acid] the “Sporulation 10^3/cm^2, on agar” value was 87.5 10^3/cm^2. O=C[C@H](O)[C@H](O)[C@H](O)CO [D(−) ribose] was tested, and the “Sporulation 10^3/cm^2, on agar” value was 1.4 10^3/cm^2. With O=C(CO)[C@@H](O)[C@H](O)[C@H](O)CO [D(−)fructose] the “Sporulation 10^3/cm^2, on agar” value was 36.8 10^3/cm^2 and the “growth in liquid culture (visual rating)” value was “I”. With OC[C@H]1O[C@H](OCC2O[C@@H](O)[C@H](O)[C@@H](O)[C@@H]2O)[C@H](O)[C@@H](O)[C@H]1O (stereo partly shown) [Melibiose] the “Sporulation 10^3/cm^2, on agar” value was 33.7 10^3/cm^2.

Same assay, conditions: carbon source; isolate OWVT-1; after incubation for 24 hr
With OC[C@H]1O[C@@H](O[C@H]2[C@H](O)[C@@H](O)[C@H](O)O[C@@H]2CO)[C@H](O)[C@@H](O)[C@@H]1O [D-(+)-cellubiose] the “Spore germination %, on agar” value was 52.2%. For Inulin, the “Spore germination %, on agar” value was 50.0%. In the case of O=C[C@H](O)[C@@H](O)[C@H](O)CO [D(+)xylose], the “Spore germination %, on agar” value is reported as 26.7%. With O=C(O)CC(O)(CC(=O)O)C(=O)O [Citric acid] the “Spore germination %, on agar” value was 52.2%. With O=C[C@H](O)[C@H](O)[C@H](O)CO [D(−) ribose] the “Spore germination %, on agar” value was 45.6%. For O=C(CO)[C@@H](O)[C@H](O)[C@H](O)CO [D(−)fructose], the “Spore germination %, on agar” value was 50.0%. In the case of OC[C@H]1O[C@H](OCC2O[C@@H](O)[C@H](O)[C@@H](O)[C@@H]2O)[C@H](O)[C@@H](O)[C@H]1O (stereo partly shown) [Melibiose], the “Spore germination %, on agar” value is reported as 48.9%.
